Measured values from US20120270860A1, “METHODS FOR TREATING OR PREVENTING ALCOHOL-RELATED DISORDERS OR CRAVING-RELATED DISORDERS” (priority 2011, published 2012).

How the values were obtained:
[1] = Case report: sexual cravings and hypersexual behaviors; type: in vivo, human; details: for hypersexual symptoms: naltrexone and topiramate before N-acetylcysteine
Text: They had sexual arousal even at age five to six years old. They started to masturbate several years later. Pretty soon masturbation became compulsive daily and multiple times a day. By then they had more access to pornography and internet. They would spend hours and hours on it. Their personal life was devastated. They had been in 12 step program called “Sex Addicts Anonymous” for the past 10 years in one of the largest cities in the US. Problem would repeatedly haunt them. Although they were given various antidepressants by doctors their condition had never stopped. They were treated with naltrexone and topiramate. […] Their hypersexual cravings and symptoms were gone. Currently, they are happily married and doing well at work. They are no longer taking naltrexone or topiramate. They are taking N-acetylcysteine only on an as needed basis. We have found same principles in voyeurism, exhibitionism and other sexual deviations. These patients often end up in jail yet they can't help themselves because of uncontrollable cravings.

[2] = test system: alcohol-dependent individuals; assay: Randomized, double-blind, placebo-controlled trial for treating alcohol dependence: safety; type: in vivo, human; details: N-acetylcysteine up to 3600 mg/day, 8-week treatment
Description: (§1) Alcohol-dependent individuals were recruited for participation in a randomized, double-blind, placebo-controlled trial for treating alcohol dependence. To evaluate the safety and efficacy of N-acetylcysteine, 2 groups (N-acetylcysteine 3600 mg/day and placebo) were compared. The total study duration was 9 weeks which included a 1-week screening period and an 8-week randomized study drug treatment period. Subjects were randomized to one of two groups (Table 1) and were evaluated weekly.
(§2) Of 46 subjects, 44 subjects who took at least one study medication were included in analysis. Data analyses were conducted on an intention-to-treat sample using the linear mixed effects model introduced by Laird and Ware (Laird, N. M. & J. H. Ware. 1982. “Random-Effects Models for Longitudinal Data.” Biometrics 38:963-974). Outcome variables were measured over nine consecutive weeks. The covariates were Alcoholics Anonymous attendance and baseline alcohol craving. All the P-values reported are 2-tailed. Significance level was set at p<0.05.

[3] = test system: alcohol-dependent individuals; assay: Quality of Life Enjoyment and Satisfaction Questionnaire (Q-LES-Q) during the trial; type: in vivo, human; parameters: key to Q-LES-Q: 16-item Q-LES-Q, 5-point scale; higher = better health status
Description: as §1, §2
The effect of N-acetylcysteine on quality of life was measured weekly during the trial described in Example 1. The quality of life was measured by the Quality of Life Enjoyment and Satisfaction Questionnaire (Q-LES-Q).
The short form of the Q-LES-Q is a 16-item self-rated scale designed to assess quality of life, differences in the degree of enjoyment and satisfaction among groups of subjects, as well as changes over time in a single subject (Endicott J., et al., Quality of Life Enjoyment and Satisfaction Questionnaire: a new measure, Psychopharmacol. Bull., 1993, 29(2), 321-326). It is a 5-point scale, with higher scores indicating better health status. The Q-LES-Q SF has been used extensively in drug treatment trials in psychiatry and addictions and has shown good reliability and validity (Endicott J., et al., Pediatric Quality of Life Enjoyment and Satisfaction Questionnaire (PQ-LES-Q): reliability and validity. J. Am. Acad. Child Adolesc. Psychiatry, 2006, 45(4), 401-7). It assesses the following areas: physical health, mood, work, household activities, social relationships, family relationships, leisure time activities, ability to function in daily life, sexual drive, interest and/or performance, economic status, living/housing situation, ability to get around physically, ability to do work or hobbies, and overall sense of well being.

[4] = test system: alcohol-dependent individuals; assay: Alcohol craving by Penn Alcohol Craving Scale (PACS) during the trial; type: in vivo, human
Description: as §1, §2
During the trial described in Example 1, alcohol craving was measured weekly by the Penn Alcohol Craving Scale (PACS)(Flannery B. A., et al., Psychometric properties of the Penn Alcohol Craving Scale. Alcohol, Clin. Exp. Res. 1999, 23(8), 1289-95). The PACS is a 5-item self-rated scale designed to assess alcohol craving severity (frequency, intensity, duration, resistance, and overall craving) during the preceding 1 week. Each item has a score range of 0-6 (maximum total craving score=30).

[5] = test system: alcohol-dependent individuals; assay: Alcohol craving by Obsessive Compulsive Drinking Scale (OCDS) during the trial; type: in vivo, human; parameters: key to OCDS: OCDS total score, 14 items scored 0-4, max 56
Description: as §1, §2
Alcohol craving was also measured weekly by the Obsessive Compulsive Drinking Scale (OCDS) (Anton R. F., et al., The obsessive compulsive drinking scale: A new method of assessing outcome in alcoholism treatment studies. Arch. Gen. Psychiatry. 1996, 53(3), 225-231; Anton R. F., et al., The Obsessive Compulsive Drinking Scale: a self-rated instrument for the quantification of thoughts about alcohol and drinking behavior, Alcohol Clin. Exp. Res., 1995, 19(1), 92-99). The OCDS is a 14-item self-rated reliable scale designed to assess obsessive and compulsive aspects of alcoholism. Each item has a score range of 0-4 (maximum total score=56). Studies of factor analysis have reported that the OCDS loads to three or four factors (OCDS: P<0.05) (Roberts. J. S., et al., Factor structure and predictive validity of the Obsessive Compulsive Drinking Scale, Alcohol Clin. Exp. Res., 1999, 23(9), 1484-1491; Bohn, M. J., et al., Psychometric properties and validity of the obsessive-compulsive drinking scale, Alcohol Clin. Exp. Res., 1996, 20(5), 817-23; Kranzler, H. R., et al., Validity of the Obsessive Compulsive Drinking Scale (OCDS): does craving predict drinking behavior?, Alcohol Clin. Exp. Res. 1999, 23(1), 108-14).

[6] = Liver function tests (plasma AST, ALT, GGT) during the trial; type: in vivo, human; parameters: AST / ALT / GGT: unit not given here; details: for ALT / AST / GGT: plasma
Description: as §1
The effect of N-acetylcysteine on liver functions was measured during the trial described in Example 1. Liver functions were assessed by measuring changes in plasma aspartate aminotransferase (AST), alanine aminotransferase (ALT) and γ-glutamyl transferase (GGT) levels three times during the study (week 0, week 5 and week 9).

[7] = test system: patients with alcohol dependence; assay: Case reports: alcohol consumption and alcohol-related symptoms; type: in vivo, human; parameters: AST / ALT: unit not given here
[8] = Case reports: food cravings and compulsive overeating; type: in vivo, human
[9] = Case report: shopping cravings and compulsive shopping; type: in vivo, human; details: person, 2400-3600 mg/day, within two weeks
Description: They have had compulsive shopping behaviors for the past 20 years. They have been under severe financial stress because of their spending habits and unemployment. They had other addictive behaviors such as drinking, hoarding and overeating. Earlier, they were married, had stable job but lost everything. Various medicines such as antipsychotics and antidepressants were ineffective. On the third visit they were given N-acetylcysteine and was advised to take 2400-3600 mg/day.

[10] = test system: cysteine/glutamate exchange; details: preclinical studies; cited from earlier work
[11] = in vivo; cited from earlier work
[12] = in vivo; cited from earlier work; remark: listed apart in the source
[13] = test system: cocaine-dependent patients; details: cited from earlier work

In the case of `O=C1CC[C@@]2(O)[C@H]3Cc4ccc(O)c5c4[C@@]2(CCN3CC2CC2)[C@H]1O5` [naltrexone], the hypersexual symptoms ([1]; person) was “only partially”.
With `CC1(C)O[C@@H]2[C@@H](CO[C@@]3(COS(N)(=O)=O)OC(C)(C)O[C@@H]23)O1` [topiramate] the hypersexual symptoms ([1]; person) was “only partially”.
For `CC(=O)N[C@@H](CS)C(=O)O` [N-acetylcysteine], the serious adverse effects [2] was “no serious adverse effects”, the tolerability [2] was “well tolerated” and the Q-LES-Q ([3]; Week 1) was 50.4000. For the same compound, the Q-LES-Q ([3]; Week 2) was 51.6390, the Q-LES-Q ([3]; Week 3) was 53.8772 and the Q-LES-Q ([3]; Week 4) was 54.1789. It also gave a Q-LES-Q ([3]; Week 5) of 57.7852, a Q-LES-Q ([3]; Week 6) of 57.5529 and a Q-LES-Q ([3]; Week 7) of 58.1422. The Q-LES-Q ([3]; Week 8) was 57.8000, the Q-LES-Q ([3]; Week 9) was 58.7244 and the “quality of life by Q-LES-Q compared to placebo” value ([3]; during the trial, p=0.017) was “improved the quality of life”. It also gave a PACS ([4]; Week 1) of 18.1429, a PACS ([4]; Week 2) of 15.1500 and a PACS ([4]; Week 3) of 14.0000. It also gave a PACS ([4]; Week 4) of 11.9474, a PACS ([4]; Week 5) of 11.7778 and a PACS ([4]; Week 6) of 9.3529. For the same compound, the PACS ([4]; Week 7) was 8.3333, the PACS ([4]; Week 8) was 7.2667 and the PACS ([4]; Week 9) was 7.2000. The “alcohol craving by PACS compared to placebo” value ([4]; during the trial, p=0.041) was “decreased alcohol craving”, the OCDS ([5]; Week 1) was 29.0000 and the OCDS ([5]; Week 2) was 24.9000. The OCDS ([5]; Week 3) was 21.6316, the OCDS ([5]; Week 4) was 20.3684 and the OCDS ([5]; Week 5) was 18.5556. The OCDS ([5]; Week 6) was 16.0000, the OCDS ([5]; Week 7) was 13.5333 and the OCDS ([5]; Week 8) was 13.4667. For the same compound, the OCDS ([5]; Week 9) was 13.8000, the “alcohol craving by OCDS compared to placebo” value ([5]; during the trial, p=0.042) was “decreased alcohol craving” and the “liver functions (AST, ALT, GGT liver function tests)” value ([6]; 8-week trial) was “improved liver functions”. The ALT ([6]; Week 0) was 36.67, the AST ([6]; Week 0) was 40.89 and the GGT ([6]; Week 0) was 193.00. It also gave an ALT ([6]; Week 5) of 33.06, an AST ([6]; Week 5) of 30.28 and a GGT ([6]; Week 5) of 139.06. The ALT ([6]; Week 9) was 29.13, the AST ([6]; Week 9) was 26.13 and the GGT ([6]; Week 9) was 92.93. The alcohol use ([7]; Case 1, after taking 900 mg) was “able to stop drinking alcohol”, the alcohol craving ([7]; Case 1, on 3600 mg) was “substantial reduction in their craving” and the AST ([7]; Case 2, from 41, in two months while taking N-acetylcysteine) was 20. The ALT ([7]; Case 2, from 51, in two months while taking N-acetylcysteine) was 18, the GGT ([7]; Case 2, from 1420, in two months while taking N-acetylcysteine) was 327 and the alcohol use ([7]; Case 2, soon after start) was “able to abstain from alcohol”. The alcohol use ([7]; Case 3, at 3600 mg/day) was “able to stop drinking alcohol completely”, the alcohol use ([7]; Case 4, 900 mg, before 12-24 beers/day) was 6 drinks/day and the alcohol use ([7]; Case 4, several weeks later, 2400-3600 mg) was “able to abstain from alcohol”. The drinking consumption ([7]; Case 5, 3600 mg, before 6-12 drinks of vodka per day) was “reduced their drinking significantly”, the drinking consumption ([7]; Case 5, at 900-2700 mg/day) was “about the same” and the “alcohol consumption and other alcohol-related symptoms” value ([7]; numerous test subjects) was “reduced alcohol consumption and other alcohol-related symptoms”. For the same compound, the weight ([8]; Case 1, from 239 lbs, in 5 weeks, 2700-3600 mg per day) was 225 lbs, the weight ([8]; Case 1, two months later, 3600 mg) was 224 lbs and the weight ([8]; Case 2, from 295 lbs, in one month) was 286 lbs. For the same compound, the “time for food craving to subside after taking” value ([8]; Case 3, 1200 mg) was ≤ 15 min, the weight lost ([8]; Case 3, start 220 lbs, two weeks, 1200 mg three times a day) was 6 lbs and the “food cravings and compulsive overeating” value ([8]; numerous test subjects) was “reduced food cravings and compulsive overeating”. The “effect in voyeurism, exhibitionism and other sexual deviations” value ([1]; patients with uncontrollable cravings) was “works dramatically”, the “hypersexual cravings and symptoms” value ([1]; person, 2400-3600 mg/day added to naltrexone and topiramate) was “ameliorated dramatically” and the “shopping cravings and behaviors” value [9] was “stopped dramatically”. The cocaine-primed reinstatement [10] was “inhibited”, the heroin-induced reinstatement [10] was “inhibited” and the “treatment of pathological gambling” value [11] was “showed the efficacy”. The half-life [12] was “short half-life”, the “cocaine use and craving” value ([13]; double-blind placebo-controlled crossover trial) was “reduced cocaine use and craving” and the safety and tolerability ([13]; human, in vivo) was “safe and well tolerated”. For the same compound, the cocaine use ([13]; open-label clinical study of cocaine-dependent patients) was “significantly reduced cocaine use”.
